{"source": "ChEMBL document CHEMBL3992555", "about": "“Design, synthesis and preliminary biological evaluation of indole-3-carboxylic acid-based skeleton of Bcl-2/Mcl-1 dual inhibitors” (Bioorg Med Chem, 2017)", "key": {"PC-3": {"test_system": "PC-3", "experiment": "Antiproliferative activity against human PC3 cells after 48 hrs by MTT assay", "type": "functional, cell-based", "settings": "PC-3, 48 h"}, "MDA-MB-231": {"test_system": "MDA-MB-231", "experiment": "Antiproliferative activity against human MDA-MB-231 cells after 48 hrs by MTT assay", "type": "functional, cell-based", "settings": "MDA-MB-231, 48 h"}, "[1]": {"molecular_target": "Apoptosis regulator Bcl-2 (Homo sapiens, UniProt P10415)", "sequence (P10415 whole entry)": "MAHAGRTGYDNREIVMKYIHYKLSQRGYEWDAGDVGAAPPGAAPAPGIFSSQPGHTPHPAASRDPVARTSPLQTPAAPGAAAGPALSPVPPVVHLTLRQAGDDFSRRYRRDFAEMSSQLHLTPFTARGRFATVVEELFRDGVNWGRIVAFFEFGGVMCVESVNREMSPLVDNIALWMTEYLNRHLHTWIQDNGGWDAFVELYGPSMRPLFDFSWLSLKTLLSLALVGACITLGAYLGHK", "experiment": "Inhibition of N-terminal FAM-labeled Bid-BH3 peptide binding to Bcl2 (unknown origin) preincubated for 30 mins followed by N-terminal FAM-labeled Bid-BH3 peptide addition measured after 20 mins by fluorescence polarization assay"}, "K562": {"test_system": "K562", "experiment": "Antiproliferative activity against human K562 cells after 48 hrs by MTT assay", "type": "functional, cell-based", "settings": "K562, 48 h"}, "[2]": {"molecular_target": "Induced myeloid leukemia cell differentiation protein Mcl-1 (Homo sapiens, UniProt Q07820)", "sequence (Q07820 whole entry)": "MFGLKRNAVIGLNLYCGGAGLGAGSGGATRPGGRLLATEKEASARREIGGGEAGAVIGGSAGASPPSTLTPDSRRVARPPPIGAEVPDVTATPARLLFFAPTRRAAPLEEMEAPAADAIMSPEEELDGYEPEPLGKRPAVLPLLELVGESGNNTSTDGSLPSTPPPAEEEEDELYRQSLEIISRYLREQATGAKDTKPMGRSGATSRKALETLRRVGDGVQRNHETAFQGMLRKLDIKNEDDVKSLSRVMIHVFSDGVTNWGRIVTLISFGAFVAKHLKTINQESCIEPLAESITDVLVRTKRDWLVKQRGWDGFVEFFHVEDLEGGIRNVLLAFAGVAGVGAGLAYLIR", "experiment": "Inhibition of N-terminal FAM-labeled Bid-BH3 peptide binding to MCL1 (unknown origin) preincubated for 30 mins followed by N-terminal FAM-labeled Bid-BH3 peptide addition measured after 20 mins by fluorescence polarization assay"}, "Bcl-2-like protein 1": {"molecular_target": "Bcl-2-like protein 1 (Homo sapiens, UniProt Q07817)", "sequence (Q07817 whole entry)": "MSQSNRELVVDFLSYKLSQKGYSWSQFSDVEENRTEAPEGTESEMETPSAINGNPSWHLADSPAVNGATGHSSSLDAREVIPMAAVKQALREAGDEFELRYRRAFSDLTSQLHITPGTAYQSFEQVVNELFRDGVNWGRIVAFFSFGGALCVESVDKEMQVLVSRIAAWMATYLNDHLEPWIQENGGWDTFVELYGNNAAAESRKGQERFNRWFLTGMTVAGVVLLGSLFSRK", "experiment": "Inhibition of N-terminal FAM-labeled Bid-BH3 peptide binding to Bcl-XL (unknown origin) preincubated for 30 mins followed by N-terminal FAM-labeled Bid-BH3 peptide addition measured after 20 mins by fluorescence polarization assay"}}, "data": [{"smiles": "COc1ccc(-c2ccc(Cn3cc(C(=O)N[C@@H](Cc4c[nH]c5ccccc45)C(=O)NS(=O)(=O)c4ccc(C)cc4)c4ccccc43)cc2)cc1", "values": [{"measurement": "IC50", "setting": "PC-3", "value": 18.3, "unit": "µM"}, {"measurement": "IC50", "setting": "MDA-MB-231", "value": 11.5, "unit": "µM"}, {"measurement": "Ki", "setting": "[1]", "value": 0.75, "unit": "µM"}, {"measurement": "IC50", "setting": "K562", "value": 10.1, "unit": "µM"}, {"measurement": "Ki", "setting": "[2]", "value": 0.53, "unit": "µM"}]}, {"smiles": "O=C(N[C@@H](Cc1ccc(OCc2ccccc2)cc1)C(=O)NS(=O)(=O)c1ccc(Cl)c([N+](=O)[O-])c1)c1cn(Cc2ccc(-c3ccc(Cl)cc3)cc2)c2ccccc12", "values": [{"measurement": "Ki", "setting": "[1]", "value": "> 10", "unit": "µM"}]}, {"smiles": "O=C(N[C@@H](Cc1ccc(Br)cc1)C(=O)NS(=O)(=O)c1ccccc1)c1cn(Cc2ccc(-c3ccc(Cl)cc3)cc2)c2ccccc12", "values": [{"measurement": "Ki", "setting": "[1]", "value": 0.91, "unit": "µM"}]}, {"smiles": "Cc1ccc(-c2ccc(Cn3cc(C(=O)N[C@@H](Cc4ccc(OCc5ccccc5)cc4)C(=O)NS(=O)(=O)c4ccc(Cl)c([N+](=O)[O-])c4)c4ccccc43)cc2)cc1", "values": [{"measurement": "Ki", "setting": "[1]", "value": "> 10", "unit": "µM"}]}, {"smiles": "COc1ccc(-c2ccc(Cn3cc(C(=O)N[C@@H](Cc4ccccc4)C(=O)O)c4ccccc43)cc2)cc1", "values": [{"measurement": "Ki", "setting": "[1]", "value": "> 10", "unit": "µM"}]}, {"smiles": "Cc1cc2c(C(C)C)c(O)c(O)c(C=O)c2c(O)c1-c1c(C)cc2c(C(C)C)c(O)c(O)c(C=O)c2c1O", "note": "[GOSSYPOL]", "values": [{"measurement": "IC50", "setting": "PC-3", "value": 8.58, "unit": "µM"}, {"measurement": "IC50", "setting": "MDA-MB-231", "value": 8.54, "unit": "µM"}, {"measurement": "IC50", "setting": "K562", "value": 8.28, "unit": "µM"}]}, {"smiles": "CCCOc1ccc(C[C@H](NC(=O)c2cn(Cc3ccc(-c4ccc(Cl)cc4)cc3)c3ccccc23)C(=O)NS(=O)(=O)c2ccc(Cl)c([N+](=O)[O-])c2)cc1", "values": [{"measurement": "Ki", "setting": "[1]", "value": "> 10", "unit": "µM"}]}, {"smiles": "COc1ccc(-c2ccc(Cn3cc(C(=O)N[C@@H](Cc4ccccc4)C(=O)NS(=O)(=O)c4ccccc4)c4ccccc43)cc2)cc1", "values": [{"measurement": "Ki", "setting": "[1]", "value": 1.3, "unit": "µM"}]}, {"smiles": "CC(C)C[C@H](NC(=O)c1cn(Cc2ccc(-c3ccc(Cl)cc3)cc2)c2ccccc12)C(=O)NS(=O)(=O)c1ccccc1", "values": [{"measurement": "Ki", "setting": "Bcl-2-like protein 1", "value": 6.2, "unit": "µM"}, {"measurement": "Ki", "setting": "[1]", "value": 0.92, "unit": "µM"}, {"measurement": "Ki", "setting": "[2]", "value": 0.6, "unit": "µM"}]}, {"smiles": "CCCOc1ccc(C[C@H](NC(=O)c2cn(Cc3ccc(-c4ccc(Cl)cc4)cc3)c3ccccc23)C(=O)NS(=O)(=O)c2ccc([N+](=O)[O-])cc2)cc1", "values": [{"measurement": "Ki", "setting": "[1]", "value": "> 10", "unit": "µM"}]}, {"smiles": "O=C(N[C@@H](Cc1ccc(OCc2ccc([N+](=O)[O-])cc2)cc1)C(=O)NS(=O)(=O)c1ccc(Cl)c([N+](=O)[O-])c1)c1cn(Cc2ccc(-c3ccc(Cl)cc3)cc2)c2ccccc12", "values": [{"measurement": "Ki", "setting": "[1]", "value": "> 10", "unit": "µM"}]}, {"smiles": "O=C(N[C@@H](Cc1ccc(OCc2ccc([N+](=O)[O-])cc2)cc1)C(=O)NS(=O)(=O)c1ccc(Cl)c([N+](=O)[O-])c1)c1cn(Cc2ccc(-c3ccccc3)cc2)c2ccccc12", "values": [{"measurement": "Ki", "setting": "[1]", "value": "> 10", "unit": "µM"}]}, {"smiles": "CCCOc1ccc(C[C@H](NC(=O)c2cn(Cc3ccc(-c4ccccc4)cc3)c3ccccc23)C(=O)NS(=O)(=O)c2ccc(Cl)c([N+](=O)[O-])c2)cc1", "values": [{"measurement": "Ki", "setting": "[1]", "value": 5.6, "unit": "µM"}]}, {"smiles": "Cc1ccc(S(=O)(=O)NC(=O)[C@H](Cc2ccccc2)N2C(=O)/C(=C/c3ccc(-c4ccccc4)cc3)SC2=S)cc1", "values": [{"measurement": "Ki", "setting": "Bcl-2-like protein 1", "value": 0.81, "unit": "µM"}, {"measurement": "Ki", "setting": "[1]", "value": 0.76, "unit": "µM"}, {"measurement": "Ki", "setting": "[2]", "value": 0.44, "unit": "µM"}]}, {"smiles": "COc1ccc(-c2ccc(Cn3cc(C(=O)N[C@@H](Cc4c[nH]c5ccccc45)C(=O)NS(=O)(=O)c4ccc(Cl)c([N+](=O)[O-])c4)c4ccccc43)cc2)cc1", "values": [{"measurement": "Ki", "setting": "[1]", "value": "> 10", "unit": "µM"}]}, {"smiles": "COc1ccc(-c2ccc(Cn3cc(C(=O)N[C@@H](Cc4ccc(Br)cc4)C(=O)NS(=O)(=O)c4ccc(Cl)c([N+](=O)[O-])c4)c4ccccc43)cc2)cc1", "values": [{"measurement": "Ki", "setting": "[1]", "value": "> 10", "unit": "µM"}]}, {"smiles": "O=C(N[C@@H](Cc1ccccc1)C(=O)NS(=O)(=O)c1ccccc1)c1cn(Cc2ccc(-c3ccccc3)cc2)c2ccccc12", "values": [{"measurement": "Ki", "setting": "[1]", "value": "> 10", "unit": "µM"}]}, {"smiles": "O=C(N[C@@H](Cc1ccccc1)C(=O)NS(=O)(=O)c1ccc(Cl)c([N+](=O)[O-])c1)c1cn(Cc2ccc(-c3ccc(Cl)cc3)cc2)c2ccccc12", "values": [{"measurement": "IC50", "setting": "PC-3", "value": 28.8, "unit": "µM"}, {"measurement": "Ki", "setting": "Bcl-2-like protein 1", "value": 0.71, "unit": "µM"}, {"measurement": "IC50", "setting": "MDA-MB-231", "value": 29.5, "unit": "µM"}, {"measurement": "Ki", "setting": "[1]", "value": 0.26, "unit": "µM"}, {"measurement": "IC50", "setting": "K562", "value": 19.7, "unit": "µM"}, {"measurement": "Ki", "setting": "[2]", "value": 0.072, "unit": "µM"}]}, {"smiles": "O=C(N[C@@H](Cc1ccccc1)C(=O)NS(=O)(=O)c1ccccc1)c1cn(Cc2ccc(-c3ccc(Cl)cc3)cc2)c2ccccc12", "values": [{"measurement": "IC50", "setting": "PC-3", "value": 23.6, "unit": "µM"}, {"measurement": "Ki", "setting": "Bcl-2-like protein 1", "value": 2.1, "unit": "µM"}, {"measurement": "IC50", "setting": "MDA-MB-231", "value": 29.6, "unit": "µM"}, {"measurement": "Ki", "setting": "[1]", "value": 0.74, "unit": "µM"}, {"measurement": "IC50", "setting": "K562", "value": 32.4, "unit": "µM"}, {"measurement": "Ki", "setting": "[2]", "value": 0.49, "unit": "µM"}]}, {"smiles": "CCCOc1ccc(C[C@H](NC(=O)c2cn(Cc3ccc(-c4ccc(OC)cc4)cc3)c3ccccc23)C(=O)NS(=O)(=O)c2ccc(Cl)c([N+](=O)[O-])c2)cc1", "values": [{"measurement": "Ki", "setting": "[1]", "value": "> 10", "unit": "µM"}]}, {"smiles": "O=C(N[C@@H](Cc1ccc(OCc2ccccc2)cc1)C(=O)NS(=O)(=O)c1ccc(Cl)c([N+](=O)[O-])c1)c1cn(Cc2ccc(-c3ccccc3)cc2)c2ccccc12", "values": [{"measurement": "Ki", "setting": "[1]", "value": "> 10", "unit": "µM"}]}, {"smiles": "COc1ccc(-c2ccc(Cn3cc(C(=O)N[C@@H](Cc4ccccc4)C(=O)NS(=O)(=O)c4ccc(Cl)c([N+](=O)[O-])c4)c4ccccc43)cc2)cc1", "values": [{"measurement": "Ki", "setting": "[1]", "value": "> 10", "unit": "µM"}]}, {"smiles": "O=C(N[C@@H](Cc1ccccc1)C(=O)NS(=O)(=O)c1ccc(Cl)c([N+](=O)[O-])c1)c1cn(Cc2ccc(-c3ccccc3)cc2)c2ccccc12", "values": [{"measurement": "Ki", "setting": "[1]", "value": 2.6, "unit": "µM"}]}, {"smiles": "O=C(N[C@@H](Cc1ccc(Br)cc1)C(=O)NS(=O)(=O)c1ccc(Cl)c([N+](=O)[O-])c1)c1cn(Cc2ccc(-c3ccc(Cl)cc3)cc2)c2ccccc12", "values": [{"measurement": "Ki", "setting": "[1]", "value": "> 10", "unit": "µM"}]}, {"smiles": "COc1ccc(-c2ccc(Cn3cc(C(=O)N[C@@H](Cc4ccc(OCc5ccccc5)cc4)C(=O)NS(=O)(=O)c4ccc(Cl)c([N+](=O)[O-])c4)c4ccccc43)cc2)cc1", "values": [{"measurement": "Ki", "setting": "[1]", "value": "> 10", "unit": "µM"}]}, {"smiles": "COc1ccc(-c2ccc(Cn3cc(C(=O)N[C@@H](Cc4ccc(OCc5ccc([N+](=O)[O-])cc5)cc4)C(=O)NS(=O)(=O)c4ccc(Cl)c([N+](=O)[O-])c4)c4ccccc43)cc2)cc1", "values": [{"measurement": "Ki", "setting": "[1]", "value": "> 10", "unit": "µM"}]}, {"smiles": "O=C(N[C@@H](Cc1ccc(Br)cc1)C(=O)NS(=O)(=O)c1ccc(Cl)c([N+](=O)[O-])c1)c1cn(Cc2ccc(-c3ccccc3)cc2)c2ccccc12", "values": [{"measurement": "Ki", "setting": "[1]", "value": "> 10", "unit": "µM"}]}]}
